Several values for one entry are separate records, joined by “and”; a condition that tells them apart may be missing. Identical values can stand only once.
Assays:
BR16 xenografts = assay: BR16 xenograft (mammary fat pad), spontaneous CTC clusters and metastasis; format: in vivo, NSG mice; conditions: ouabain daily for three weeks
Description: Blood specimens for CTC analysis were obtained from University Hospital Basel after informed patient consent according to protocol EKNZ BASEC 2016-00067 and EK 321/10, which received ethical approval from the Swiss authorities (EKNZ, Ethics Committee northwest/central Switzerland). An average of 7.5 ml of blood per patient was drawn in EDTA vacutainers. Within 1 hr from blood draw, the blood was processed through Parsortix GEN3D6.5 Cell Separation Cassette (Angle Europe). For mouse studies, blood was retrieved via cardiac puncture and 1 ml of blood was similarly processed through a Parsortix device. Captured CTCs were further stained on Parsortix cassette with EpCAM-AF488 conjugated (CellSignaling, Cat #CST5198), HER2-AF488 (#324410, BioLegend), EGFR-FITC conjugated (GeneTex, Cat #GTX11400) and CD45-BV605 conjugated (Biolegend, Cat #304042 (anti-human); Cat #103140 (anti-mouse)) antibodies. For all other models (xenografts), carrying cancer cells stably expressing a GFP-Luciferase reporter, only anti-CD45 staining was performed, while CTCs were identified based on GFP expression. The number of captured CTCs, including single CTCs, CTC clusters and CTC-WBC clusters, was determined while cells were still in the cassette. CTCs were then released from the cassette in DPBS (#14190169, Gibco) onto ultra-low attachment plates (#3471-COR, Corning). Representative pictures were taken at 40× magnification with Leica DM14000 fluorescent microscope using Leica LAS and analyzed with ImageJ.
For tail vein experiments, NOD SCID Gamma (NSG) mice (Jackson Labs) were injected with 1×10^6 BR16-mCherry cells resuspended in 100 μl D-PBS and monitored with IVIS Lumina II (Perkin Elmer). For CTC xenograft mouse model isolation, 1×10^6 LM2-GFP, 1×10^6 BRx50-GFP or 1×10^6 BR16-GFP cells were resuspended in 100 μl of 50% Cultrex PathClear Reduced Growth Factor Basement Membrane Extract (R&D Biosystems, Cat #3533-010-02) in D-PBS and injected orthotopically in NSG mice. Blood draw was performed 4-5 weeks after tumor onset for LM2 cells, 5-6 months after tumor onset for BR16 and 6-7 months after tumor onset for BRx50 cells.

BRx50 CTC cell line = assay: 17-day treatment, WGBS and i-cisTarget analysis of DMRs that gain methylation; format: cell-based, human; conditions: 20 nM
Description: (§1) In order to assess the effect of clustering on DNA methylation patterns and proliferation signature directly BR16 and BRx50 cell lines were cultured for 17 days to ensure that at least 4 divisions would take place. This is to allow proper time for DNA methylation remodeling to take place.
(§2) Under these conditions, for both CTC derived cell lines, a subset of cluster-associated hypomethylated DMRs from patient and xenografts regain ≥20% methylation.
(§3) Proteinase K digestion and bisulfite treatment was performed according to manufacturer's instructions for EZ DNA Methylation Direct Kit (Zymo, Cat #D5020). Bisulfite-treated DNA was eluted using 9 μl of Elution Buffer and used for library generation with TruSeq DNA methylation kit (Illumina, Cat #EGMK91396) according to manufacturer's instructions. For amplification, 18 cycles were performed using Failsafe Enzyme (Illumina, Cat #FSE51100) and indexes were introduced with Index Primers' Kit (Illumina, Cat #EGIDX81312). Library purification was performed using Agencourt AMPure XP beads at a ratio of 1:1 according to manufacturer's instructions. To avoid DNA loss during pipetting steps, Corning DeckWork low binding barrier pipet tips were used (Sigma, Cat #CLS4135-4X960EA). Library concentration was estimated using Qubit DS DNA HS Assay Kit according to manufacturer's instructions (Invitrogen, Cat #Q32854).
(§4) An enrichment score (ES) indicates the over- or underrepresentation of a certain object within a sample of many objects (=enrichment). […] A negative enrichment score indicates the opposite, namely that a feature is less present than to be expected by the values of other features in the sample. […] An enrichment score can be normalized by dividing a specific ES by the mean of the enrichment scores for all objects in the dataset to yield a normalized enrichment score (NES). Normalization of the enrichment score accounts for differences in gene set size and in correlations between gene sets and the expression dataset; therefore, a normalized enrichment scores (NES) can be used to compare analysis results across gene sets. Only TFBS with a NES score […] shown in the analysis.

BR16 CTC cell line = assay: as above; format: cell-based, human; conditions: 20 nM
Description: as §1, §2, §3, §4

In the case of `C[C@@H]1O[C@@H](O[C@H]2C[C@@H](O)[C@]3(CO)[C@H]4[C@H](O)C[C@]5(C)[C@@H](C6=CC(=O)OC6)CC[C@]5(O)[C@@H]4CC[C@]3(O)C2)[C@H](O)[C@H](O)[C@H]1O` [ouabain, Ouabain], the “frequency of single CTCs” value (BR16 xenografts) is reported as “increasing the frequency”, the “frequency of spontaneously-generated CTC clusters” value (BR16 xenografts) is reported as “reduced the frequency” and the “overall CTC numbers” value (BR16 xenografts) is reported as “without altering”. For the same compound, the “size of the primary tumor” value (BR16 xenografts) was “without altering”, the “suppression of the total metastatic burden” value (BR16 xenografts) was 80.7 fold and the “NES score of TFBS BCL11A in DMRs with ≥20% gain in methylation” value (BRx50 CTC cell line) was 3.8 and 3.69. For the same compound, the “NES score of TFBS FOS in DMRs with ≥20% gain in methylation” value (BRx50 CTC cell line) was 3.91, the “NES score of TFBS FOXG1/O1 in DMRs with ≥20% gain in methylation” value (BRx50 CTC cell line) was 3.53 and 3.25 and 3.1 and the “NES score of TFBS HMBOX1 in DMRs with ≥20% gain in methylation” value (BRx50 CTC cell line) was 3.35 and 3.30 and 3.22. The “NES score of TFBS IRX6 in DMRs with ≥20% gain in methylation” value (BRx50 CTC cell line) was 3.8, the “NES score of TFBS MEIS1 in DMRs with ≥20% gain in methylation” value (BRx50 CTC cell line) was 4.09 and the “NES score of TFBS NANOG in DMRs with ≥20% gain in methylation” value (BRx50 CTC cell line) was 3.61. For the same compound, the “NES score of TFBS OCT4 in DMRs with ≥20% gain in methylation” value (BRx50 CTC cell line) was 3.42, the “NES score of TFBS RORA in DMRs with ≥20% gain in methylation” value (BRx50 CTC cell line) was 4.02 and 3.75 and the “NES score of TFBS SIX4/5 in DMRs with ≥20% gain in methylation” value (BRx50 CTC cell line) was 3.87 and 3.65. The “NES score of TFBS SOX18 in DMRs with ≥20% gain in methylation” value (BRx50 CTC cell line) was 3.11, the “NES score of TFBS YY2 in DMRs with ≥20% gain in methylation” value (BRx50 CTC cell line) was 3.56 and the “NES score of TFBS ZNF493 in DMRs with ≥20% gain in methylation” value (BRx50 CTC cell line) was 3.12. The “number of DMRs with ≥20% gain in methylation” value (BRx50 CTC cell line) was “(n = 121)”, the “NES score of TFBS BDP1 in DMRs with ≥20% gain in methylation” value (BR16 CTC cell line; 17-day treatment) was 5.64 and the “NES score of TFBS CEBPD in DMRs with ≥20% gain in methylation” value (BR16 CTC cell line; 17-day treatment) was 4.05. The “NES score of TFBS FOS in DMRs with ≥20% gain in methylation” value (BR16 CTC cell line; 17-day treatment) was 7.29 and 6.04, the “NES score of TFBS FOXG1/O1 in DMRs with ≥20% gain in methylation” value (BR16 CTC cell line; 17-day treatment) was 3.74 and 3.39 and the “NES score of TFBS HMBOX1 in DMRs with ≥20% gain in methylation” value (BR16 CTC cell line; 17-day treatment) was 3.89. The “NES score of TFBS HSF1 in DMRs with ≥20% gain in methylation” value (BR16 CTC cell line; 17-day treatment) was 3.71, the “NES score of TFBS IRF4 in DMRs with ≥20% gain in methylation” value (BR16 CTC cell line; 17-day treatment) was 3.244 and the “NES score of TFBS IRX3 in DMRs with ≥20% gain in methylation” value (BR16 CTC cell line; 17-day treatment) was 3.63. The “NES score of TFBS IRX6 in DMRs with ≥20% gain in methylation” value (BR16 CTC cell line; 17-day treatment) was 3.63, the “NES score of TFBS KDM5D in DMRs with ≥20% gain in methylation” value (BR16 CTC cell line; 17-day treatment) was 3.11 and the “NES score of TFBS MEIS1 in DMRs with ≥20% gain in methylation” value (BR16 CTC cell line; 17-day treatment) was 3. For the same compound, the “NES score of TFBS NANOG in DMRs with ≥20% gain in methylation” value (BR16 CTC cell line; 17-day treatment) was 3.349 and 3.28, the “NES score of TFBS OCT4 in DMRs with ≥20% gain in methylation” value (BR16 CTC cell line; 17-day treatment) was 3.2 and 3.13 and 3.204 and the “NES score of TFBS SIX4/5 in DMRs with ≥20% gain in methylation” value (BR16 CTC cell line; 17-day treatment) was 6.27 and 6.16. The “NES score of TFBS SOX2 in DMRs with ≥20% gain in methylation” value (BR16 CTC cell line; 17-day treatment) was 4.82 and 4.51 and 4.24 and 3.28, the “NES score of TFBS SOX18 in DMRs with ≥20% gain in methylation” value (BR16 CTC cell line; 17-day treatment) was 3.2 and the “NES score of TFBS SRY in DMRs with ≥20% gain in methylation” value (BR16 CTC cell line; 17-day treatment) was 6.46 and 6.36. The “NES score of TFBS TPPP in DMRs with ≥20% gain in methylation” value (BR16 CTC cell line; 17-day treatment) was 3.1, the “NES score of TFBS YAP5 in DMRs with ≥20% gain in methylation” value (BR16 CTC cell line; 17-day treatment) was 3.55 and 3.08 and the “NES score of TFBS YY2 in DMRs with ≥20% gain in methylation” value (BR16 CTC cell line; 17-day treatment) was 6.5,. For the same compound, the “NES score of TFBS ZNF274 in DMRs with ≥20% gain in methylation” value (BR16 CTC cell line; 17-day treatment) was 4.59 and 3.01, the “NES score of TFBS ZNF594 in DMRs with ≥20% gain in methylation” value (BR16 CTC cell line; 17-day treatment) was 4.84 and the “number of DMRs with ≥20% gain in methylation” value (BR16 CTC cell line; 17-day treatment) was “n = (108)”. The “gain of methylation in DMRs containing binding sites for stemness-related TFs” value (BR16 CTC cell line; 17 days) was “simultaneously affecting the binding sites of OCT4, SOX2 and NANOG”.
